Test results: US8946265B2, “Process for the preparation of lenalidomide” (Generics [UK] Limited, priority 2009, dated 2015)
Read-outs that look alike come from different tables or passages of the source.

How the values were obtained:
[1] = Thermodynamic stability and interconversion of polymorphs; assay type: physicochemical
[2] = Hygroscopicity of the crystalline form; assay type: physicochemical; conditions: solid crystalline form

SMILES	polymorphic conversion under heating ([1]; conditions of heating)	hygroscopicity [2]	thermodynamic stability relative to other polymorphs [1]	polymorphic conversion in aqueous solvent systems ([1]; aqueous solvent systems)	thermodynamic stability relative to other polymorphs ([1]; listed as form A)
Nc1cccc2c1CN(C1CCC(=O)NC1=O)C2=O (centres unmarked) [form B, 3-(4-amino-1-oxo-1,3-dihydro-isoindol-2-yl)-piperidine-2,6-dione]	convert to form A	–	–	–	–
Nc1cccc2c1CN(C1CCC(=O)NC1=O)C2=O (centres unmarked) [lenalidomide crystalline form A, 3-(4-amino-1-oxo-1,3-dihydro-isoindol-2-yl)-piperidine-2,6-dione]	–	non-hygroscopic	most thermodynamically stable anhydrous polymorph	convert to form B	most thermodynamically stable form
